The text below walks through data of ChEMBL document CHEMBL1138307, “Structure activity relationship studies of carboxamido-biaryl ethers as opioid receptor antagonists (OpRAs). Part 2” (Bioorg Med Chem Lett, 2007).

pKi: −log10 of the molar value.

Holding throughout (format): cell-based
In one test the target is Mu-type opioid receptor (Homo sapiens, UniProt P35372). Put plainly: Displacement of [3H]diprenorphine from cloned human mu opioid receptor expressed in CHO cells. In general terms: Loss of bound radioactivity is the signal in a displacement assay; it reports binding, not function.
Test [1] concerns the target Kappa-type opioid receptor (Homo sapiens, UniProt P41145). The experiment in a line: Displacement of [3H]diprenorphine from cloned human kappa opioid receptor expressed in CHO cells.
Test [2] has as its target Delta-type opioid receptor (Homo sapiens, UniProt P41143). The experiment in a line: Displacement of [3H]bremazocine from cloned human delta opioid receptor expressed in CHO cells.

Sequence of Mu-type opioid receptor (P35372 whole entry): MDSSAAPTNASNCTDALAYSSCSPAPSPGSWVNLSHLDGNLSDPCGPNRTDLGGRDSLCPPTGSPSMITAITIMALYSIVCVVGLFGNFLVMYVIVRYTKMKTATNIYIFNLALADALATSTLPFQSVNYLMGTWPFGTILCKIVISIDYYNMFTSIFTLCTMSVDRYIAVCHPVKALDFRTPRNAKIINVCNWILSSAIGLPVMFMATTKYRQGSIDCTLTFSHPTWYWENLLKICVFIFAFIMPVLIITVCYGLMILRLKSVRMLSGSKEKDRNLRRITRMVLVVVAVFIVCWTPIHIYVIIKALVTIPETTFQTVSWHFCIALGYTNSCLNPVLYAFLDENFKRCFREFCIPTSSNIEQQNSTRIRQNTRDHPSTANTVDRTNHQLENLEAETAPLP
Sequence of Delta-type opioid receptor (P41143 whole entry): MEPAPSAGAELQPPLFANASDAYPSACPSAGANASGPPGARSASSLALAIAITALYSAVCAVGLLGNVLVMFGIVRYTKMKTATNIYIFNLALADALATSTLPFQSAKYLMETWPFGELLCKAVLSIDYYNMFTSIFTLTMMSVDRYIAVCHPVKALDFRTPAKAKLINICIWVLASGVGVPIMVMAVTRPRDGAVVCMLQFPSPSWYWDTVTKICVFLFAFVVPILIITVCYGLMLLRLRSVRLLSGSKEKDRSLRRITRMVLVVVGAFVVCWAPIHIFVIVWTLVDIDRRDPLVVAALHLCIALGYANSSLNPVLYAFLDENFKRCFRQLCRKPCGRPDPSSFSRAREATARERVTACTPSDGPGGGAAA
Sequence of Kappa-type opioid receptor (P41145 whole entry): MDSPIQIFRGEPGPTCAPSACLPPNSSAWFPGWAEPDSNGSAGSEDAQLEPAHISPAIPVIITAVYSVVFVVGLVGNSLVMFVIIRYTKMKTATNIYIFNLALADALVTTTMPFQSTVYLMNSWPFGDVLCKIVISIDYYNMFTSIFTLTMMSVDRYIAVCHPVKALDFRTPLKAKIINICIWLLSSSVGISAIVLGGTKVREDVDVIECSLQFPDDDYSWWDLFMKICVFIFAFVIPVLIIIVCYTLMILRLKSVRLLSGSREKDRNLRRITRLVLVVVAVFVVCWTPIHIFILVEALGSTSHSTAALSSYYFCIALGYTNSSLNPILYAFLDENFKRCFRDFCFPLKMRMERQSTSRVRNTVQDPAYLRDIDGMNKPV

For orientation: pKi means −log10 of the Ki, conventionally taken in molar units. Read a low pKi as a large Ki. For the compound `NC(=O)c1ccc(Oc2ccc3c(c2)CN(CCc2ccccc2)C3)nc1`, the results for the pKi (at Mu-type opioid receptor; in test [1]; in test [2]) were 6.18, under 5.30 and 5.64, respectively.

In the case of `NC(=O)c1ccc(Oc2ccc3c(c2)CCN(Cc2ccccc2)C3)nc1`, the negative logarithm of the Ki (pKi) at Mu-type opioid receptor was 6.75; in test [1] it was 5.67; in test [2], 5.63.

On to `NC(=O)c1ccc(Oc2ccc3c(c2)CCN(CCCc2ccccc2)C3)nc1`, for which the pKi was 6.73 at Mu-type opioid receptor, 6.26 in test [1] and 5.67 in test [2].

For the compound `NC(=O)c1ccc(Oc2ccc3c(c2)CN(CCc2ccccc2)CC3)nc1`, the pKi is under 5.48 on Mu-type opioid receptor, 5.44 in test [1] and under 5.30 in test [2].

As to `NC(=O)c1ccc(Oc2ccc3c(c2)CCCN(CCc2ccccc2)C3)nc1`, the values for the pKi (on Mu-type opioid receptor; in test [1]; in test [2]) were 8.00, 6.44 and 6.77, respectively.

As for `NC(=O)c1ccc(Oc2ccc3c(c2)CCN(Cc2ccccc2)CC3)nc1`, the pKi was 6.39 on Mu-type opioid receptor, 5.54 in test [1] and 5.57 in test [2].

Take `NC(=O)c1ccc(Oc2ccc3c(c2)CCN(CCc2ccccc2)CC3)nc1`: the negative logarithm of the Ki (pKi) is 7.04 on Mu-type opioid receptor, under 5.31 in test [1] and 5.86 in test [2].

With `NC(=O)c1ccc(Oc2ccc(CCN3CCc4ccccc4C3)cc2)nc1`, the pKi at Mu-type opioid receptor was 8.30; in test [1] it was 6.73; in test [2], 6.84.

For `CCCCN1CCCc2cc(Oc3ccc(C(N)=O)cn3)ccc2C1`, the negative-log Ki (pKi) on Mu-type opioid receptor was 7.68; in test [2], 6.30.

In the case of `CCCCCN1CCCc2cc(Oc3ccc(C(N)=O)cn3)ccc2C1`, the pKi at Mu-type opioid receptor is 7.93; in test [1] it was 6.98; in test [2] it was 6.73.

As to `CCCCCCN1CCCc2cc(Oc3ccc(C(N)=O)cn3)ccc2C1`, the negative logarithm of the Ki (pKi) at Mu-type opioid receptor was 7.92; in test [1] it was 6.93; in test [2], 6.79.

`CC(C)CCN1CCCc2cc(Oc3ccc(C(N)=O)cn3)ccc2C1`: the pKi on Mu-type opioid receptor is 7.95; in test [1], 7.11; in test [2], 6.63.

Take `CC(C)CCCCN1CCCc2cc(Oc3ccc(C(N)=O)cn3)ccc2C1`: the pKi on Mu-type opioid receptor is 7.92; in test [1], 6.50; in test [2], 6.62.

As for `CCC(CC)CN1CCCc2cc(Oc3ccc(C(N)=O)cn3)ccc2C1`, the negative-log Ki (pKi) on Mu-type opioid receptor was 7.38; in test [1], 7.21; in test [2], 5.41.

Take `NC(=O)c1ccc(Oc2ccc3c(c2)CCCN(CCCC2CCCCC2)C3)nc1`: the pKi is 7.38 on Mu-type opioid receptor, 6.15 in test [1] and 6.33 in test [2].

Regarding `NC(=O)c1ccc(Oc2ccc3c(c2)CN(Cc2ccccc2)C3)nc1`, the pKi was 6.00 on Mu-type opioid receptor, under 5.30 in test [1] and under 5.30 in test [2].

For `NC(=O)c1ccc(Oc2ccc3c(c2)CCCN(CCN2CCOCC2)C3)nc1`, the pKi is 6.89 on Mu-type opioid receptor, 6.44 in test [1] and 5.72 in test [2].

On to `NC(=O)c1ccc(Oc2ccc3c(c2)CCCN(CCCN2CCOCC2)C3)nc1`, for which the figures for the pKi (on Mu-type opioid receptor; in test [1]; in test [2]) were 6.67, 5.49 and 5.59, respectively.

As for `CC(C)CCCN1CCCc2cc(Oc3ccc(C(N)=O)cn3)ccc2C1`, the pKi at Mu-type opioid receptor is 8.12; in test [1], 6.97; in test [2], 6.97.

`CC(C)(C)CCN1CCCc2cc(Oc3ccc(C(N)=O)cn3)ccc2C1`: the results for the negative-log Ki (pKi) (on Mu-type opioid receptor; in test [1]; in test [2]) were 7.74, 7.14 and 6.39, respectively.

Regarding `NC(=O)c1ccc(Oc2ccc3c(c2)CCN(CCc2ccccc2)C3)nc1`, the negative logarithm of the Ki (pKi) on Mu-type opioid receptor was 7.80; in test [1] it was 5.91; in test [2] it was 6.75.

In the case of `NC(=O)c1ccc(Oc2ccc3c(c2)CN(Cc2ccccc2)CC3)nc1`, the negative-log Ki (pKi) on Mu-type opioid receptor is 6.64; in test [1] it was 5.61; in test [2], 5.61.

`NC(=O)c1ccc(Oc2ccc3c(c2)CCCN(CCCC(F)(F)F)C3)nc1`: the pKi on Mu-type opioid receptor is 7.61; in test [2] it was 6.41.
